Assay results as given in patent publication US10544154B2, “Opioid receptor antagonist prodrugs” (Nirsum Laboratories, Inc., priority 2017, dated 2020).

Experiments:
[1] = Plasma stability, rat plasma (HPLC-MS); type: in vitro ADME; conditions: 10 μM, 37° C.
Procedure: Plasma stability determination of the test compounds in rat, dog, cynomolgus monkey and human plasma is performed using HPLC-MS. For rat, incubations are carried out in 96-well polypropylene plates in 5 aliquots of 70 μL each (one for each time point). […] Five time points are analyzed (0, 15, 120, 480 and 1440 min). For dog, monkey and human, test compounds (2 μM, final solvent concentration 1%) were also incubated at 37° C. and analyzed at five time points (0, 10, 30, 60 and 120 min). All incubations are performed in duplicates. The samples are analyzed by HPLC-MS. The percentage of parent compound remaining after incubation in plasma is determined.

[2] = Polymorph screening of solid state drug substances; type: physicochemical; conditions: for Dry method and appearance: after stirring at 50 °C for 72 hours; for XRPD results (Dried): dried solid
[3] = Clinical observations for dogs in pharmacokinetic studies; type: in vivo, Beagle dogs; conditions: 48 mg/kg
Procedure: Weight monitoring was done every week.
The dose formulation (concentration—400 mg base equivalents/ml in sesame oil+1% benzyl alcohol, unless otherwise specified) was administered via deep intramuscularly (unless otherwise specified). The injection vehicle was also dosed via deep intramuscular route (unless otherwise specified) on contralateral site of each animal at study initiation. The animals were sedated with Propofol at 6 mg/kg via IV administration. Following sedation hair was carefully removed from around the injection site and the area gently cleaned. Care will be taken to avoid irritating skin during shaving and cleaning the injection site. Then dogs will be dosed with deep IM administration. At least 2.5 cm depth from the surface into the central aspect of the quadriceps or biceps femoris muscle, by angling the needle toward the femur. If the needle hits the femur, simply draws back slightly and then inject. The dose volume will be determined by the animals' body weight collected on the morning of dosing day. For repeated administration, the injection sites may be rotated to minimize tissue injury.

C=C1CC[C@@]2(O)C3Cc4ccc(OCOC(=O)OCCCCCCCCCCCCCC)c5c4[C@@]2(CCN3CC2CC2)[C@H]1O5 [Compound 25, (((4aS,7aS,12bS)-3-(cyclopropylmethyl)-4a-hydroxy-7-methylene-2,3,4,4a,5,6,7,7a-octahydro-1H-4,12-methanobenzofuro[3,2-e]isoquinolin-9-yl)oxy)methyl tetradecyl carbonate]
% remaining at time point in minutes, 0 min [1]: 100%

CCCCCCCCCCCCCCC(=O)Oc1ccc2c3c1O[C@H]1C(=O)CC[C@@]4(O)C(C2)N(CC2CC2)CC[C@]314 [Compound 58, (4aS,7aR,12bS)-3-(cyclopropylmethyl)-4a-hydroxy-7-oxo-2,3,4,4a,5,6,7,7a-octahydro-1H-4,12-methanobenzofuro[3,2-e]isoquinolin-9-yl pentadecanoate]
% remaining at time point in minutes, 0 min [1]: 100%
% remaining at time point in minutes, 15 min [1]: 37%
% remaining at time point in minutes, 120 min [1]: 20%
% remaining at time point in minutes, 480 min [1]: 2.9%
% remaining at time point in minutes, 1440 min [1]: 1.8%

CCCCCCCCOC(=O)Oc1ccc2c3c1O[C@H]1C(=O)CC[C@@]4(O)C(C2)N(CC2CC2)CC[C@]314 [Compound 23, (4aS,7aR,12bS)-3-(cyclopropylmethyl)-4a-hydroxy-7-oxo-2,3,4,4a,5,6,7,7a-octahydro-1H-4,12-methanobenzofuro[3,2-e]isoquinolin-9-yl octyl carbonate]
% remaining at time point in minutes, 0 min [1]: 100%
% remaining at time point in minutes, 15 min [1]: 0%
% remaining at time point in minutes, 120 min [1]: 0%
% remaining at time point in minutes, 480 min [1]: 0%
% remaining at time point in minutes, 1440 min [1]: 0%

C=C1CC[C@@]2(O)C3Cc4ccc(OC(=O)NC(C)(C)C)c5c4[C@@]2(CCN3CC2CC2)[C@H]1O5 [Compound 40, (4aS,7aS,12bS)-3-(cyclopropylmethyl)-4a-hydroxy-7-methylene-2,3,4,4a,5,6,7,7a-octahydro-1H-4,12-methanobenzofuro[3,2-e]isoquinolin-9-yl tert-butylcarbamate]
Dry method and appearance ([2]; Acetone): Evaporation/white powder
XRPD results (Dried) ([2]; Acetone): Amorphous
Dry method and appearance ([2]; EtOAc): Evaporation/white powder
XRPD results (Dried) ([2]; EtOAc): Pattern A
Dry method and appearance ([2]; Heptane): Centrifugation/white powder
XRPD results (Dried) ([2]; Heptane): Pattern A
Dry method and appearance ([2]; Isopropanol): Evaporation/oil
XRPD results (Dried) ([2]; Isopropanol): Amorphous
Dry method and appearance ([2]; MTBE): Evaporation/white powder
XRPD results (Dried) ([2]; MTBE): Amorphous

C=C1CC[C@@]2(O)C3Cc4ccc(OC(=O)CCCCCCCCCCCCCCCCCCC)c5c4[C@@]2(CCN3CC2CC2)[C@H]1O5 [Compound 16, (4aS,7aS,12bS)-3-(cyclopropylmethyl)-4a-hydroxy-7-methylene-2,3,4,4a,5,6,7,7a-octahydro-1H-4,12-methanobenzofuro[3,2-e]isoquinolin-9-yl icosanoate]
Dry method and appearance ([2]; Acetone): Evaporation/white powder
XRPD results (Dried) ([2]; Acetone): Pattern A
Dry method and appearance ([2]; EtOAc): Evaporation/white powder
XRPD results (Dried) ([2]; EtOAc): Pattern A
Dry method and appearance ([2]; Heptane): Centrifugation/white powder
XRPD results (Dried) ([2]; Heptane): Pattern A
Dry method and appearance ([2]; Isopropanol): Centrifugation/white powder
XRPD results (Dried) ([2]; Isopropanol): Pattern A
Dry method and appearance ([2]; MTBE): Evaporation/white powder
XRPD results (Dried) ([2]; MTBE): Pattern A

C=C1CC[C@@]2(O)C3Cc4ccc(OC(=O)OCCCCCCCCCCC)c5c4[C@@]2(CCN3CC2CC2)[C@H]1O5 [Compound 3, (4aS,7aS,12bS)-3-(cyclopropylmethyl)-4a-hydroxy-7-methylene-2,3,4,4a,5,6,7,7a-octahydro-1H-4,12-methanobenzofuro[3,2-e]isoquinolin-9-yl undecyl carbonate]
BT ([3]; dog D1001, Day 1): cm/BT: 39.2° C./
BT ([3]; dog D1001, Day 2): 38.9 °C
BT ([3]; dog D1001, Day 3): 39.1 °C
BT ([3]; dog D1001, Day 4): 38.5 °C
BT ([3]; dog D1001, Day 5): 38.6 °C
BT ([3]; dog D1001, Day 6): 38.4 °C
BT ([3]; dog D1001, Day 7): 38.4 °C
BT ([3]; dog D1001, Day 8): 38.7 °C
BT ([3]; dog D1001, Day 9): 38.7 °C
BT ([3]; dog D1001, Day 10): 38.4 °C
BT ([3]; dog D1001, Day 11): 38.8 °C
BT ([3]; dog D1001, Day 12): 38.0 °C
BT ([3]; dog D1001, Day 13): 38.4 °C
BT ([3]; dog D1001, Day 15): 37.8 °C
BT ([3]; dog D1001, Day 17): BT: 38.3 °C
BT ([3]; dog D1001, Day 18): BT: 38.4 °C
BT ([3]; dog D1001, Day 19): BT: 38.3 °C
BT ([3]; dog D1001, Day 20): BT: 37.9 °C
BT ([3]; dog D1001, Day 21): BT: 38.6 °C
BT ([3]; dog D1001, Day 22): BT: 38.8 °C
BT ([3]; dog D1001, Day 23): BT: 38.3 °C
BT ([3]; dog D1001, Day 24): BT: 38.5 °C
BT ([3]; dog D1001, Day 25): BT: 38.4 °C
BT ([3]; dog D1001, Day 26): BT: 38.2 °C
BT ([3]; dog D1001, Day 27): BT: 38.4 °C
BT ([3]; dog D1002, Day 1): 39.1 °C
BT ([3]; dog D1002, Day 2): 39.3 °C
BT ([3]; dog D1002, Day 3): 39.3 °C
BT ([3]; dog D1002, Day 4): 38.5 °C
BT ([3]; dog D1002, Day 5): 38.7 °C
BT ([3]; dog D1002, Day 6): 38.8 °C
BT ([3]; dog D1002, Day 7): 38.6 °C
BT ([3]; dog D1002, Day 8): 38.7 °C
BT ([3]; dog D1002, Day 9): 38.3 °C
BT ([3]; dog D1002, Day 10): calf/BT: 38.3 °C
BT ([3]; dog D1002, Day 11): 38.9 °C
BT ([3]; dog D1002, Day 12): 38.5 °C
BT ([3]; dog D1002, Day 13): 38.8 °C
BT ([3]; dog D1002, Day 14): 38.3 °C
BT ([3]; dog D1002, Day 15): 37.8 °C
BT ([3]; dog D1002, Day 17): 38.7 °C
BT ([3]; dog D1002, Day 18): 38.8 °C
BT ([3]; dog D1002, Day 19): 38.7 °C
BT ([3]; dog D1002, Day 20): 38.6 °C
BT ([3]; dog D1002, Day 21): BT: 38.5 °C
BT ([3]; dog D1002, Day 22): BT: 39.3 °C
BT ([3]; dog D1002, Day 23): BT: 38.8 °C
BT ([3]; dog D1002, Day 24): BT: 39.1 °C
BT ([3]; dog D1002, Day 25): BT: 38.6 °C
BT ([3]; dog D1002, Day 26): BT: 38.6 °C
BT ([3]; dog D1002, Day 27): cm/BT: 38.6 °C
Clinical observation, R-TA ([3]; dog D1003, 8 hr): Swelling 4 * 3
BT ([3]; dog D1003, Day 1): side/BT: 39.6 °C
BT ([3]; dog D1003, Day 2): side/BT: 39.7 °C
BT ([3]; dog D1003, Day 3): 39.2 °C
BT ([3]; dog D1003, Day 4): site/BT: 38.7 °C
BT ([3]; dog D1003, Day 5): 39.0 °C
BT ([3]; dog D1003, Day 6): 39.2 °C
BT ([3]; dog D1003, Day 7): 39.5 °C
BT ([3]; dog D1003, Day 8): 39.4 °C
BT ([3]; dog D1003, Day 9): 38.8 °C
BT ([3]; dog D1003, Day 10): 38.9 °C
BT ([3]; dog D1003, Day 11): swelling/BT: 39.4 °C
BT ([3]; dog D1003, Day 12): swelling/BT: 39.3 °C
BT ([3]; dog D1003, Day 13): swelling/BT: 39.9 °C
BT ([3]; dog D1003, Day 15): swelling/BT: 39.4 °C
BT ([3]; dog D1003, Day 17): swelling/BT: 39.5 °C
BT ([3]; dog D1003, Day 18): swelling/BT: 39.5 °C
BT ([3]; dog D1003, Day 19): swelling/BT: 39.4 °C
BT ([3]; dog D1003, Day 21): swelling/BT: 39.3 °C
BT ([3]; dog D1003, Day 22): swelling/BT: 39.9 °C
BT ([3]; dog D1003, Day 24): BT: 39.5 °C
BT ([3]; dog D1003, Day 25): BT: 39.8 °C
BT ([3]; dog D1003, Day 26): BT: 39.3 °C
BT ([3]; dog D1003, Day 27): BT: 38.9 °C
